One compound from US12383534B2, “Methods for treating cancer” (REGENTS OF THE UNIVERSITY OF MINNESOTA, priority 2021, dated 2025) can be followed below.

Experiment [1] has as its system CIC-DUX4 target genes ETV1, 4, and 5. The experiment is described as follows: RT-qPCR for CIC-DUX4 target genes in NCC-CDS-X1 cells. The format is cell-based, human. Conditions: NCC-CDS-X1, 24 hours, 0.03 and 0.3 μM. On the procedure: (§1) RNA was extracted using an RNA extraction kit (Zymo) and cDNA was made using 0.5 μg total RNA with oligo-dT primer and Verso cDNA Synthesis Kit (Thermo Scientific) following the manufacturer's instructions. qPCRs were performed by using Premix Ex Taq (Probe qPCR, Takara) or SYBR-green. Gene expression levels were normalized to that of GAPDH and analyzed with 7500 System Software using the ACT method (Applied Biosystems). RNA-seq library preparation was done with 500 ng total RNA from NCC-CDS-X1 cells treated for 4 or 24 hours with iP300w (0.3 μM) using the Swift Rapid RNA Library Kit (SwiftBioscience). 36 base paired-end sequencing was performed on an Illumina NextSeq instrument at the University of Minnesota Genomics Center.
Next, the effect of the stereoisomers on the CIC-DUX4 target genes in cells cultured with the compounds for 24 hours was analyzed.
(In qPCR the cycle at which signal appears reflects the starting amount.)

For experiment [2], the system named is NCC-CDS-X1 cells. The experiment is described as follows: EdU incorporation (FACS) in NCC-CDS-X1 cells. It is filed as cell-based, human. On the procedure: EdU labeling and visualization was done using Click-iT® EdU Flow Cytometry Assay Kit (Thermo Fisher Scientific). Briefly, 1×10^5 NCC-CDS-X1 cells were plated in each well of a 24-well plate. The following day, continual treatment with 0.3 μM iP300w was initiated. For the pulse experiment, cells were treated with iP300w for 4 or 24 hours and analyzed 24 hours later. Cells were cultured with EdU ([…]) in the last 4 hours of the experiment, and samples were prepared for analyses according to the manufacture's instruction. FACS analyses were performed on a BD FACSAria instrument and data was analyzed using FlowJo (BD Biosciences). Experiments were performed on at least three biological replicates.

Experiment [3] deals with CIC-DUX4 target genes like ETV4 and CCNE1 in ES cell lines (AF573, TC71, A673). The experiment is described as follows: RT-qPCR for CIC-DUX4 target genes in Ewing sarcoma cell lines. The format is cell-based. Conditions: 0.03 μM, 18 hours. Here is the method: as §1
To determine whether iP300w was particularly active against CDS cells, vis-à-vis other related cancer cell lines, viability of 3 different Ewing sarcoma (ES) cell lines and several different immortalized cell lines treated with iP300w were compared. […] Furthermore, gene expression analyses confirmed the specificity of iP300w to CDS.

In experiment [4] the test system is ETV1, 4, and 5 in 3T3-CIC-DUX4, C2C12-CIC-DUX4 and LHCN-CIC-DUX4 cell lines. The experiment is described as follows: RT-qPCR for CIC-DUX4 target genes in cell lines overexpressing CIC-DUX4. The format is cell-based, mouse and human. Conditions: each CIC-DUX4 overexpressing cell line, 18 hours. Here is the method:
Viral supernatants were produced in 293T cells. For transducing mouse cells (3T3 and C2C12), the CIC-DUX4 expression vector was packed with pCL-Eco, and for infecting human cells (293T, LHCN-M2) with psPAX2 and pMD2.G using FUGENE 6 (Roche). Viral supernatant was collected at 48 hours and 72 hours post-transfection and applied to the cells. Two days post-infection GFP positive cells were sorted using a BD FACSAria II. Established cell lines were tested for CIC-DUX4 expression by immunofluorescence and RT-qPCR.
as §1, with “Center. […]” for “Center.”

Experiment [5] relates to global H3K18 and H3K27 acetylation. The experiment is described as follows: Western blot for H3 acetylation markers in NCC-CDS-X1 cells. It is filed as cell-based, human. Conditions: NCC-CDS-X1, 18 hours. On the procedure:
For western blot analyses, cells were lysed with RIPA buffer supplemented with protease inhibitor cocktail (Complete, Roche), and proteins were separated on 10% SDS-PAGE gels, then transferred to PVDF membranes. Antibodies were diluted in 5% skim milk in TBST and incubated overnight at 4° C. or 1 hour at RT. An appropriate secondary HRP conjugated antibody was incubated for 1 hour at RT. Membranes were then washed with TBST, and signal was visualized using Pierce ECL western blotting substrate (Thermo Scientific). For immunofluorescence, cells cultured in 96 well plates were fixed in 4% PFA for 10 min., washed twice with PBS, permeabilized with 0.3% Triton X for 30 min, and blocked with 3% BSA for 1 hour at R/T. Primary antibodies were diluted in 3% BSA and incubated o/n at 4° C. An appropriate conjugated secondary antibody was applied for 60 min at RT. Nuclei were visualized using DAPI (1:5000, Sigma). […]
(In western blotting, separated proteins are transferred to a membrane and probed.)

Turning to `CNC(=O)Cn1cc(-c2ccc3c(c2)[C@H](F)C[C@]32NC(=O)N(CC(=O)N(Cc3ccc(F)cc3)[C@@H](C)C(F)(F)F)C2=O)cn1` (single isomer, unassigned) [iP300w], the “down-regulation of direct CIC-DUX4 targets ETV1, 4, and 5” value in experiment [1] was “Significant down-regulation”. The “proliferation rate after 4-hour pulse” value in experiment [2] (0.3 μM 4-hour pulse, measured 20 hours later) is on record as “significantly reduced proliferation rate”. Further, the “cell cycle recovery after 24-hour pulse” value in experiment [2] (0.3 μM treated for 24 hours, 48 hours after the pulse) is recorded as “not able to restore the cell cycle”. For the same compound, the “EdU labeling of proliferating cells” value in experiment [2] (continual treatment 0.3 μM, 48 hours) is “virtually no cells were labelled”. Also, the “effect on basal expression of CIC-DUX4 target genes and cell cycle-related genes” value in experiment [3] was “did not affect the basal expression”. For the same compound, the “effect on CIC-DUX4-induced ETV1, 4, and 5” value in experiment [4] was “reversible”. In addition, in experiment [5], the “effect on global H3K18 and H3K27 acetylation” value was “reduces global H3K18 and H3K27 acetylation”.
